Data: patent US6737383B1, “Herbicidal oxadiazolidines” (priority 1999, dated 2004)

Experiments:
[1] = test system: soybean; experiment: Test B pre/postemergence soybean; assay type: in vivo, Glycine max; details: for Soybean plant response rating: scale of 0 to 10 where 0 is no effect and 10 is complete control
Procedure, shortened: (§1)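 Herbicidal effect was estimated by eye on a ten-point control scale after plants spent twelve to sixteen days in a greenhouse following soil or foliar treatment. Foliar sprays targeted plants at one to four leaves; all doses were formulated in a non-phytotoxic solvent with surfactant.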

[2] = test system: rice; experiment: Test B flood test rice; assay type: in vivo, Oryza sativa
Procedure, shortened: (§2)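 Plants were grown to the 2-leaf stage before treatment with test chemical, then held in a greenhouse for twelve to sixteen days. Injury was visually rated against untreated controls on a 0–10 scale, where 0 is no effect and 10 is complete control.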

[3] = test system: corn; experiment: Test B pre/postemergence corn; assay type: in vivo, Zea mays; details: for Corn plant response rating: scale of 0 to 10 where 0 is no effect and 10 is complete control
Procedure, shortened: as §1

[4] = test system: crabgrass; experiment: Test B pre/postemergence crabgrass; assay type: in vivo, Digitaria sanguinalis; details: for Crabgrass plant response rating: scale of 0 to 10 where 0 is no effect and 10 is complete control
Procedure, shortened: as §1

[5] = test system: wild oat; experiment: Test B pre/postemergence wild oat; assay type: in vivo, Avena fatua; details: for Wild oats plant response rating: scale of 0 to 10 where 0 is no effect and 10 is complete control
Procedure, shortened: as §1

[6] = test system: smallflower flatsedge; experiment: Test B flood test smallflower flatsedge; assay type: in vivo, Cyperus difformis
Procedure, shortened: as §2

[7] = test system: bamyardgrass; experiment: Test B flood test barnyardgrass; assay type: in vivo, Echinochloa crus-galli
Procedure, shortened: as §2

[8] = test system: cocklebur; experiment: Test B pre/postemergence cocklebur; assay type: in vivo, Xanthium strumarium; details: for Cocklebur plant response rating: scale of 0 to 10 where 0 is no effect and 10 is complete control
Procedure, shortened: as §1

[9] = test system: pigweed; experiment: Test B pre/postemergence pigweed; assay type: in vivo, Amaranthus retroflexus; details: for Redroot pigweed plant response rating: scale of 0 to 10 where 0 is no effect and 10 is complete control
Procedure, shortened: as §1

[10] = test system: rape; experiment: Test B pre/postemergence rape; assay type: in vivo, Brassica napus; details: for Rape plant response rating: scale of 0 to 10 where 0 is no effect and 10 is complete control
Procedure, shortened: as §1

[11] = test system: surinam grass; experiment: Test B pre/postemergence surinam grass; assay type: in vivo, Brachiaria decumbens
Procedure, shortened: as §1

[12] = test system: sugar beet; experiment: Test B pre/postemergence sugar beet; assay type: in vivo, Beta vulgaris; details: for Sugarbeets plant response rating: scale of 0 to 10 where 0 is no effect and 10 is complete control
Procedure, shortened: as §1

[13] = test system: duck salad; experiment: Test B flood test duck salad; assay type: in vivo, Heteranthera limosa
Procedure, shortened: as §2

[14] = test system: velvetleaf; experiment: Test B pre/postemergence velvetleaf; assay type: in vivo, Abutilon theophrasti; details: for Velvetleaf plant response rating: scale of 0 to 10 where 0 is no effect and 10 is complete control
Procedure, shortened: as §1

[15] = test system: morningglory; experiment: Test B pre/postemergence morningglory; assay type: in vivo, Ipomoea hederacea; details: for Morningglory plant response rating: scale of 0 to 10 where 0 is no effect and 10 is complete control
Procedure, shortened: as §1

[16] = test system: bedstraw; experiment: Test B pre/postemergence bedstraw; assay type: in vivo, Galium aparine
Procedure, shortened: as §1

[17] = Postemergence, Rate 125 g/ha, scale 0 to 10, 0 is no effect, 10 is complete control
[18] = Preemergence, Rate 62 g/ha, scale 0 to 10 (0 no effect, 10 complete control)
[19] = Rate 500 g/ha, Postemergence, scale 0 to 10, 0 no effect, 10 complete control
[20] = Postemergence (flood test), Rate 125 g/ha, scale 0 to 10, 0 is no effect, 10 is complete control
[21] = Rate 62 g/ha, Postemergence (flood test species), scale of 0 to 10 where 0 is no effect and 10 is complete control
[22] = Rate 500 g/ha, listed under Postemergence (flood test species), scale 0 to 10, 0 no effect, 10 complete control
[23] = Preemergence, Rate 250 g/ha, scale of 0 to 10 where 0 is no effect and 10 is complete control
[24] = Preemergence, Rate 500 g/ha, scale of 0 to 10 where 0 is no effect and 10 is complete control
[25] = Rate 62 g/ha, Postemergence, scale of 0 to 10 where 0 is no effect and 10 is complete control
[26] = Rate 250 g/ha, Postemergence, scale of 0 to 10 where 0 is no effect and 10 is complete control

## Cc1cccc(C(C)(C)C)c1-n1c(=O)on(C(=O)N(c2ccc(F)cc2)C(C)C)c1=O [Compound 359]
[1]; [17]
  Plant response rating, Soybean: 2
[1]; [18]
  Plant response rating, Soybean: 0
[1]; Preemergence, Rate 125 g/ha
  Soybean plant response rating (0 to 10 scale): 0
[1]; Preemergence, Rate 250 g/ha
  Soybean plant response rating: 0
[1]; Preemergence, Rate 500 g/ha
  Soybean plant response rating: 0
[1]; Rate 62 g/ha, Postemergence
  Soybean plant response rating: 0
[1]; [19]
  Plant response rating, Soybean: 3
[2]; [20]
  Plant response rating, Rice: 0
[2]; [21]
  Rice plant response rating: 0
[2]; [22]
  Plant response rating, Rice: 0
[3]; [17]
  Plant response rating, Corn: 0
[3]; [18]
  Plant response rating, Corn: 0
[3]; Preemergence, Rate 125 g/ha
  Corn plant response rating (0 to 10 scale): 0
[3]; Preemergence, Rate 250 g/ha
  Corn plant response rating: 0
[3]; Preemergence, Rate 500 g/ha
  Corn plant response rating: 0
[3]; Rate 62 g/ha, Postemergence
  Corn plant response rating: 0
[3]; [19]
  Plant response rating, Corn: 0
[4]; [17]
  Plant response rating, Crabgrass: 0
[4]; [18]
  Plant response rating, Crabgrass: 0
[4]; Preemergence, Rate 125 g/ha
  Crabgrass plant response rating (0 to 10 scale): 0
[4]; Preemergence, Rate 250 g/ha
  Crabgrass plant response rating: 0
[4]; Preemergence, Rate 500 g/ha
  Crabgrass plant response rating: 0
[4]; Rate 62 g/ha, Postemergence
  Crabgrass plant response rating: 0
[4]; [19]
  Plant response rating, Crabgrass: 0
[5]; [17]
  Plant response rating, Wild oats: 0
[5]; [18]
  Plant response rating, Wild oats: 0
[5]; Preemergence, Rate 125 g/ha
  Wild oats plant response rating (0 to 10 scale): 0
[5]; Preemergence, Rate 250 g/ha
  Wild oats plant response rating: 0
[5]; Preemergence, Rate 500 g/ha
  Wild oats plant response rating: 0
[5]; Rate 62 g/ha, Postemergence
  Wild oats plant response rating: 0
[5]; [19]
  Plant response rating, Wild oats: 0
[6]; [20]
  Plant response rating, S. Flatsedge: 0
[6]; [21]
  S. Flatsedge plant response rating: 0
[6]; [22]
  Plant response rating, S. Flatsedge: 0
[7]; [20]
  Plant response rating, Barnyardgrass: 0
[7]; [21]
  Barnyardgrass plant response rating: 0
[7]; Rate 250 g/ha, Postemergence (flood test species), scale of 0 to 10 where 0 is no effect and 10 is complete control
  Plant response rating, Barnyardgrass: 0
[7]; [22]
  Plant response rating, Barnyardgrass: 0
[8]; [17]
  Plant response rating, Cocklebur: 0
[8]; [18]
  Plant response rating, Cocklebur: 0
[8]; Preemergence, Rate 125 g/ha
  Cocklebur plant response rating (0 to 10 scale): 0
[8]; Preemergence, Rate 500 g/ha
  Cocklebur plant response rating: 0
[8]; Rate 62 g/ha, Postemergence
  Cocklebur plant response rating: 0
[8]; [19]
  Plant response rating, Cocklebur: 1
[9]; [17]
  Plant response rating, Redroot pigweed: 0
[9]; [18]
  Plant response rating, Redroot pigweed: 0
[9]; Preemergence, Rate 125 g/ha
  Redroot pigweed plant response rating (0 to 10 scale): 0
[9]; Preemergence, Rate 250 g/ha
  Redroot pigweed plant response rating: 0
[9]; Preemergence, Rate 500 g/ha
  Redroot pigweed plant response rating: 0
[9]; Rate 62 g/ha, Postemergence
  Redroot pigweed plant response rating: 0
[9]; [19]
  Plant response rating, Redroot pigweed: 0
[10]; [17]
  Plant response rating, Rape: 0
[10]; [18]
  Plant response rating, Rape: 0
[10]; Preemergence, Rate 125 g/ha
  Rape plant response rating (0 to 10 scale): 0
[10]; Preemergence, Rate 250 g/ha
  Rape plant response rating: 0
[10]; Preemergence, Rate 500 g/ha
  Rape plant response rating: 0
[10]; Rate 62 g/ha, Postemergence
  Rape plant response rating: 0
[10]; [19]
  Plant response rating, Rape: 0
[11]; [17]
  Plant response rating, B. signalgrass: 0
[11]; [18]
  Plant response rating, B. signalgrass: 0
[11]; Preemergence, Rate 125 g/ha
  B. signalgrass plant response rating (0 to 10 scale, 0 is no effect, 10 is complete control): 0
[11]; [23]
  B. signalgrass plant response rating: 0
[11]; [24]
  B. signalgrass plant response rating: 0
[11]; [25]
  B. signalgrass plant response rating: 0
[11]; [26]
  Plant response rating, B. signalgrass: 0
[11]; [19]
  Plant response rating, B. signalgrass: 0
[12]; [17]
  Plant response rating, Sugarbeets: 0
[12]; [18]
  Plant response rating, Sugarbeets: 0
[12]; Preemergence, Rate 125 g/ha
  Sugarbeets plant response rating (0 to 10 scale): 0
[12]; Preemergence, Rate 250 g/ha
  Sugarbeets plant response rating: 0
[12]; Preemergence, Rate 500 g/ha
  Sugarbeets plant response rating: 0
[12]; Rate 62 g/ha, Postemergence
  Sugarbeets plant response rating: 0
[12]; [19]
  Plant response rating, Sugarbeets: 0
[13]; [20]
  Plant response rating, Ducksalad: 0
[13]; [21]
  Ducksalad plant response rating: 0
[13]; [22]
  Plant response rating, Ducksalad: 0
[14]; [17]
  Plant response rating, Velvetleaf: 0
[14]; [18]
  Plant response rating, Velvetleaf: 0
[14]; Preemergence, Rate 125 g/ha
  Velvetleaf plant response rating (0 to 10 scale): 0
[14]; Preemergence, Rate 250 g/ha
  Velvetleaf plant response rating: 0
[14]; Preemergence, Rate 500 g/ha
  Velvetleaf plant response rating: 0
[14]; Rate 62 g/ha, Postemergence
  Velvetleaf plant response rating: 0
[14]; [19]
  Plant response rating, Velvetleaf: 2
[15]; [17]
  Plant response rating, Morningglory: 0
[15]; [18]
  Plant response rating, Morningglory: 0
[15]; Preemergence, Rate 125 g/ha
  Morningglory plant response rating (0 to 10 scale): 0
[15]; Preemergence, Rate 250 g/ha
  Morningglory plant response rating: 0
[15]; Preemergence, Rate 500 g/ha
  Morningglory plant response rating: 0
[15]; Rate 62 g/ha, Postemergence
  Morningglory plant response rating: 0
[15]; [19]
  Plant response rating, Morningglory: 0
[16]; [17]
  Plant response rating, Bedstraw: 0
[16]; [18]
  Plant response rating, Bedstraw: 0
[16]; Preemergence, Rate 125 g/ha
  Bedstraw plant response rating (0 to 10 scale): 0
[16]; [23]
  Bedstraw plant response rating: 0
[16]; [24]
  Bedstraw plant response rating: 0
[16]; [25]
  Bedstraw plant response rating: 0
[16]; [26]
  Plant response rating, Bedstraw: 0
[16]; [19]
  Plant response rating, Bedstraw: 0
